From patent US20080213175A1, “Click chemistry-derived cyclic peptidomimetics as integrin markers” (priority 2006, published 2008)

Experiments:
[1] = biological target: Integrin αvβ3 (Homo sapiens, UniProt P05106+P06756); test: Surface plasmon resonance (SPR) 'inverse' integrin αvβ3 assay; format: binding
Protocol: Compound 17 was immobilized onto a CM5 chip (Supplier: Biacore. CM5 is a SPR chip with a carboxymethylated dextran covalently attached to a gold surface) via amine coupling. Integrin αvβ3 samples at 25 nM concentration, premixed with a wide range of concentrations of RGD test compound (0˜1000 nm), were flowed through the CM5 chip at 14° C. The interactions between the flowing integrin αvβ3 sample and the surface of the chip were recorded by Biacore sensorgram signals. Flow cell #1 served as blank control and the flow cell #2 were coated with compound 17. After subtraction the blank signal of flow cell #1 from the signal of flow cell #2, the resulting sensorgram signals from each cycle were converted into percentage values. Then the Kd and IC50 values for each RGD compounds were calculated.

[2] = biological target: T1, Integrin αvβ3 expressing U87MG cells (Homo sapiens, UniProt P05106+P06756); test: Cell-based integrin binding competition assay; details: competition with 2 μM fluorescence labeled compound 18, 2 hrs
T1 construct: Integrin αvβ3 expressing U87MG cells; endogenous in cells; host or cells: U87MG
Protocol: Integrin αvβ3 expressing U87MG cells were incubated with a series of concentration of RGD compounds (0-32 μM) in the presence of 2 μM of green fluorescence labeled compound 18 for 2 hrs. After incubation, cells were washed three times to eliminate unbound RGD compounds. Fluorescence readings (RLU) were then taken (excitation at 491 nm, emission at 518 nm, cutoff 515 nm).
The results are consistent with that of surface plasmon resonance assay.

[3] = system: tumor xenograft of either U87MG human glioblastoma or A431 human squamous cell carcinoma; details: mouse, in vivo
Protocol: PET Studies: In vivo microPET imaging of a tumor-bearing mouse is performed on an anesthetized mouse bearing tumor xenograft of either U87MG human glioblastoma or A431 human squamous cell carcinoma after administration of cyclic peptidomimetic. […] See e.g. FIG. 3-6.

[4] = system: integrin-positive M21 melanoma xenograft; details: integrin-positive M21 melanoma xenograft model; cited from earlier work
[5] = system: A431 human squamous cell carcinoma model; details: tumor cells integrin negative; cited from earlier work
[6] = cited from earlier work
[7] = biological target: integrin (Homo sapiens, UniProt P05106+P06756); details: cited from earlier work
[8] = SPR, compared with RGDfK, FIG. 1

## N=C(N)NCCC[C@@H]1NC(=O)[C@H](CCCCN)n2cc(nn2)[C@H](Cc2ccccc2)NC(=O)[C@H](CC(=O)O)NC(=O)CNC1=O [Compound 1]
[1]; 'inverse' SPR, compound 17 immobilized on CM5 chip, integrin αvβ3 25 nM, 14° C.
  binding affinity to integrin αvβ3: surprisingly high binding affinity
[1]; [8]
  IC50: very close to those of RGDfK
  Kd: very close to those of RGDfK
[2]
  potency: very similar in potency

## N=C(N)NCCC[C@@H]1NC(=O)[C@H](CCCCNC(=O)CCOCCOCCOCCOCCNC(=O)Cn2cc(CCCF)nn2)n2cc(nn2)[C@H](Cc2ccccc2)NC(=O)[C@H](CC(=O)O)NC(=O)CNC1=O [Compound 2]
[3]
  renal clearance and liver uptake: favorable renal clearance and very little liver uptake
  tumor uptake and retention: good tumor uptake and retention
  wash-out rate from muscle and other healthy tissues: fast wash-out rate

## N=C(N)NCCC[C@@H]1NC(=O)[C@H](CCCCNC(=O)CCN(CCC(=O)NCCCC[C@H]2C(=O)N[C@@H](CCCNC(=N)N)C(=O)NCC(=O)N[C@@H](CC(=O)O)C(=O)N[C@@H](Cc3ccccc3)c3cn2nn3)C(=O)CCOCCOCCOCCOCCNC(=O)Cn2cc(CCCF)nn2)n2cc(nn2)[C@H](Cc2ccccc2)NC(=O)[C@H](CC(=O)O)NC(=O)CNC1=O [Compound 3]
[3]
  renal clearance and liver uptake: favorable renal clearance and very little liver uptake
  tumor uptake and retention: good tumor uptake and retention
  wash-out rate from muscle and other healthy tissues: fast wash-out rate

## CC([18F])C(=O)NC[C@H]1OC(C(=O)NCCCC[C@@H]2NC(=O)C(Cc3ccccc3)NC(=O)[C@H](CC(=O)O)NC(=O)CNC(=O)[C@H](CCCNC(=N)N)NC2=O)[C@@H](O)C(O)C1O (stereo partly drawn) [[^18F]galacto-RGD]
[4]
  tumor uptake: integrin αvβ3-specific tumor uptake
[5]
  visualization of integrin αvβ3 expression from tumor vasculature: sensitive enough for visualization of integrin αvβ3 expression
[6]; both preclinical models and human studies
  activity accumulation in organs: prominent activity accumulation in the liver, kidneys, spleen, and intestines
[6]; healthy volunteers and a limited number of cancer patients
  safety of administration: could be safely administered to patients
[6]; human, in vivo
  pharmacokinetic behavior: unfavorable pharmacokinetic behavior
  tumor standard uptake values: modest tumor standard uptake values
[6]; initial clinical trials
  delineation of integrin-positive lesions: able to delineate certain lesions that were integrin-positive with reasonable contrast
[7]
  integrin binding affinity: relatively low integrin binding affinity
